# Positions of bridges follow the written chain, without caps; N, C: chain ends. Non-standard residues stand in square brackets, D forms with d. Residues, ends and D or L forms follow the SMILES beside them. Lys(N3) = [N-]=[N+]=NCCCC[C@H](N)C(=O)O; R8 = C=CCCCCCC[C@@](C)(N)C(=O)O; Cba = N[C@@H](CC1CCC1)C(=O)O; S5 = C=CCCC[C@](C)(N)C(=O)O; βAla = NCCC(=O)O
# Assays:
# [1] = Solubility assay (kinetic solubility, PBS pH 7); type: physicochemical; conditions: pH 7, PBS; for solubility kinetic: pH 7, aqueous buffer, kinetic from dmso stock, read-out: Solubility
# How it was run: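 Values derive from peak-area ratios of sample versus a 100 µM standard, scaled by that standard's concentration.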
# in vitro = conditions: Nanoclick permeability assay EC50
# How it was run: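 Azido-peptide permeability was read as loss of NanoBRET signal (donor 450 nm, acceptor 610 nm) after adding NanoBret618-azide at 10 μM final.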
# [2] = Lactate dehydrogenase (LDH) release assay; type: cell-based; conditions: LDH: Cytotoxicity assay EC50
# How it was run: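 Geometric means of at least three independent biological runs are given for LDH release measured in HCT116 cells stably expressing a p53-driven β-lactamase reporter. Plating density was 8000 cells/well; DMSO in wells was 0.5%.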
# [3] = Experimental LogD (partition coefficient); conditions: for logD: not stated, Partition Coeff LogD
SMILES,EPSA (physchem) [A^2],solubility kinetic [1] [µM],cell entry EC50 (in vitro) [nM],EC50 [2] [nM],logD [3],Solubility [1],Partition Coeff LogD [3]
CC(C)C[C@@H]1NC(=O)[C@H](C)NC(=O)[C@H](Cc2c[nH]c3ccccc23)NC(=O)[C@H](Cc2ccc(O)cc2)NC(=O)[C@H](CCC(=O)O)NC(=O)[C@](C)(NC(=O)[C@H](Cc2ccccc2)NC(=O)[C@H](CO)NC(=O)[C@@H](NC(=O)[C@H](CO)NC(=O)CNC(=O)[C@H](CO)NC(=O)[C@@H](N)CCCCN=[N+]=[N-])[C@@H](C)O)CCCCCCC=CCCC[C@@](C)(C(N)=O)NC(=O)[C@H](CC(C)C)NC1=O [MP-75496],236,10,518,> 50600,2.46,,
CC(=O)N[C@@H](CCCCN=[N+]=[N-])C(=O)NCCC(=O)N[C@@H](CCCNC(=N)N)C(=O)N[C@H](C(=O)N[C@@H](Cc1ccccc1)C(=O)N[C@]1(C)CCCCCCC=CCCC[C@@](C)(C(=O)N[C@@H](CCCCN)C(=O)N[C@@H](C)C(=O)N[C@@H](C)C(N)=O)NC(=O)[C@H](CC2CCC2)NC(=O)[C@H](CCCNC(=N)N)NC(=O)[C@H](C)NC(=O)[C@H](Cc2c[nH]c3ccccc23)NC(=O)[C@H](Cc2ccc(O)cc2)NC(=O)[C@H](CCC(=O)O)NC1=O)[C@@H](C)O [MP-537] (Ac-[Lys(N3)][βAla]RTF[R8]EYWAR[Cba][S5]KAA-NH2; staple 6-13),224,140,87.9,7290,2.48,,
CC(=O)N[C@@H](CCCCN=[N+]=[N-])C(=O)NCCC(=O)N[C@@H](CC(C)C)C(=O)N[C@H](C(=O)N[C@@H](Cc1ccccc1)C(=O)N[C@]1(C)CCCCCCC=CCCC[C@@](C)(C(=O)N[C@@H](CO)C(=O)N[C@@H](Cc2ccccc2)C(=O)N[C@@H](Cc2ccccc2)C(N)=O)NC(=O)[C@H](CC2CCC2)NC(=O)[C@H](CCC(N)=O)NC(=O)[C@H](CO)NC(=O)[C@H](Cc2c[nH]c3ccccc23)NC(=O)[C@H](Cc2ccc(O)cc2)NC(=O)[C@H](CCC(=O)O)NC1=O)[C@@H](C)O [MP-545] (Ac-[Lys(N3)][βAla]LTF[R8]EYWSQ[Cba][S5]SFF-NH2; staple 6-13),241,,137,> 50600,,Poorly Behaved,Poorly Behaved
CC(=O)N[C@@H](CCCCN=[N+]=[N-])C(=O)NCCC(=O)N(C)[C@@H](CC(C)C)C(=O)N[C@H](C(=O)N[C@@H](Cc1ccccc1)C(=O)N[C@]1(C)CCCCCCC=CCCC[C@@](C)(C(=O)N[C@@H](CO)C(=O)N[C@@H](C)C(=O)N[C@@H](C)C(N)=O)NC(=O)[C@H](CC2CCC2)NC(=O)[C@H](CCC(N)=O)NC(=O)[C@H](C)NC(=O)[C@H](Cc2c[nH]c3ccccc23)NC(=O)[C@H](Cc2ccc(O)cc2)NC(=O)[C@H](CCC(=O)O)NC1=O)[C@@H](C)O [MP-189],226,122,865,> 50000,3.04,,
CC(=O)N[C@@H](CCCCN=[N+]=[N-])C(=O)NCCC(=O)N[C@@H](CC(C)C)C(=O)NC(C)(C)C(=O)N[C@@H](Cc1ccccc1)C(=O)N[C@]1(C)CCCCCCC=CCCC[C@@](C)(C(=O)N[C@@H](CO)C(=O)N[C@@H](C)C(=O)N[C@@H](C)C(N)=O)NC(=O)[C@H](CC2CCC2)NC(=O)[C@H](CCC(N)=O)NC(=O)[C@H](C)NC(=O)[C@H](Cc2c[nH]c3ccccc23)NC(=O)[C@H](Cc2ccc(O)cc2)NC(=O)[C@H](CCC(=O)O)NC1=O [MP-169],227,61.5,253,> 50000,3.06,,
CC(=O)N[C@@H](CCCCN=[N+]=[N-])C(=O)NCCC(=O)N[C@@H](CC(C)C)C(=O)N(C)[C@H](C(=O)N[C@@H](Cc1ccccc1)C(=O)N[C@]1(C)CCCCCCC=CCCC[C@@](C)(C(=O)N[C@@H](CO)C(=O)N[C@@H](C)C(=O)N[C@@H](C)C(N)=O)NC(=O)[C@H](CC2CCC2)NC(=O)[C@H](CCC(N)=O)NC(=O)[C@H](C)NC(=O)[C@H](Cc2c[nH]c3ccccc23)NC(=O)[C@H](Cc2ccc(O)cc2)NC(=O)[C@H](CCC(=O)O)NC1=O)[C@@H](C)O [MP-190],219,116,420,> 50000,2.73,,
CC(=O)N[C@@H](CCCCN=[N+]=[N-])C(=O)NCCC(=O)N[C@@H](CC(C)C)C(=O)N[C@H](C(=O)N[C@@H](Cc1ccccc1)C(=O)N[C@]1(C)CCCCCCC=CCCC[C@@](C)(C(=O)N[C@@H](CO)C(=O)N[C@@H](C)C(=O)N[C@@H](C)C(N)=O)NC(=O)[C@H](CC2CCC2)NC(=O)[C@H](CCC(N)=O)NC(=O)C(C)(C)NC(=O)[C@H](Cc2c[nH]c3ccccc23)NC(=O)[C@H](Cc2ccc(O)cc2)NC(=O)[C@H](CCC(=O)O)NC1=O)[C@@H](C)O [MP-170],225,92.5,549,> 50000,2.85,,
CC(=O)N[C@@H](CCCCN=[N+]=[N-])C(=O)NCCC(=O)N[C@@H](CCCNC(=N)N)C(=O)N[C@@H](Cc1ccc(O)cc1)C(=O)N[C@@H](Cc1ccccc1)C(=O)N[C@]1(C)CCCCCCC=CCCC[C@@](C)(C(=O)N[C@@H](CO)C(=O)N[C@@H](C)C(=O)N[C@@H](Cc2ccccc2)C(N)=O)NC(=O)[C@H](CC2CCC2)NC(=O)[C@H](CCC(N)=O)NC(=O)[C@H](C)NC(=O)[C@H](Cc2c[nH]c3ccccc23)NC(=O)[C@H](Cc2ccc(O)cc2)NC(=O)[C@H](CCC(=O)O)NC1=O [MP-5546] (Ac-[Lys(N3)][βAla]RYF[R8]EYWAQ[Cba][S5]SAF-NH2; staple 6-13),256,2,511,> 50600,3.2,,
CC(=O)N[C@@H](CCCCN=[N+]=[N-])C(=O)NCCC(=O)N[C@@H](CC(C)C)C(=O)N[C@H](C(=O)N[C@@H](Cc1ccccc1)C(=O)N[C@]1(C)CCCCCCC=CCCC[C@@](C)(C(=O)N[C@@H](CO)C(=O)N[C@@H](C)C(=O)N[C@@H](C)C(N)=O)NC(=O)[C@H](CC2CCC2)NC(=O)[C@H](CCC(N)=O)NC(=O)[C@H](CCC(=O)O)NC(=O)[C@H](Cc2c[nH]c3ccccc23)NC(=O)[C@H](Cc2ccc(O)cc2)NC(=O)[C@H](CCC(=O)O)NC1=O)[C@@H](C)O [MP-180],235,93,732,> 50000,2.38,,
CC(=O)N[C@@H](CCCCN=[N+]=[N-])C(=O)NCCC(=O)N[C@@H](CCCNC(=N)N)C(=O)N[C@H](C(=O)N[C@@H](Cc1ccccc1)C(=O)N[C@]1(C)CCCCCCC=CCCC[C@@](C)(C(=O)N[C@@H](CO)C(=O)N[C@@H](C)C(=O)N[C@@H](C)C(N)=O)NC(=O)[C@H](CC2CCC2)NC(=O)[C@H](CCCNC(=N)N)NC(=O)[C@H](C)NC(=O)[C@H](Cc2c[nH]c3ccccc23)NC(=O)[C@H](Cc2ccccc2)NC(=O)[C@H](CCC(=O)O)NC1=O)[C@@H](C)O [MP-538] (Ac-[Lys(N3)][βAla]RTF[R8]EFWAR[Cba][S5]SAA-NH2; staple 6-13),223,5,230,6780,3.16,,

# — PMC10786919, “Design-rules for stapled peptides with in vivo activity and their application to Mdm2/X antagonists” (Nature Communications, 2024)
